How the values were obtained:
[1] = intranasal; cited from earlier work
human C3A liver cells = assay: Microarray differential gene expression in human C3A liver cell cultures treated with steroids; format: cell-based
Excerpt: Incyte clones represent template sequences derived from the LWESEQ GOLD assembled human sequence database (Incyte Genomics). In cases where more than one clone was available for a particular template, the 5′-most clone in the template was used on the microarray. The HUMAN GENOME GEM series 1-4 microarrays (Incyte Genomics) contain 28,626 array elements which represent 10,068 annotated clusters and 18,558 unannotated clusters. For the UNIGEM series microarrays (Incyte Genomics), Incyte clones were mapped to non-redundant Unigene clusters (Unigene database (build 46), NCBI; Shuler (1997) J Mol Med 75:694-698), and the 5′ clone with the strongest BLAST alignment (at least 90% identity and 100 bp overlap) was chosen, verified, and used in the construction of the microarray. The UNIGEM V microarray (Incyte Genomics) contains 7075 array elements which represent 4610 annotated genes and 2,184 unannotated clusters.
To construct microarrays, cDNAs were amplified from bacterial cells using primers complementary to vector sequences flanking the cDNA insert. […] Amplified cDNAs were then purified using […]-400 columns (APB). Purified cDNAs were immobilized on polymer-coated glass slides. Glass microscope slides (Corning, Corning N.Y.) were cleaned by ultrasound in 0.1% SDS and acetone, with extensive distilled water washes between and after treatments. Glass slides were etched in 4% hydrofluoric acid (VWR Scientific Products, West Chester Pa.), washed thoroughly in distilled water, and coated with 0.05% aminopropyl silane (Sigma Aldrich) in 95% ethanol. Coated slides were cured in a 110° C. oven. cDNAs were applied to the coated glass substrate using a procedure described in U.S. Pat. No. 5,807,522. One microliter of the cDNA at an average concentration of 100 ng/μl was loaded into the open capillary printing element by a high-speed robotic apparatus which then deposited about 5 nl of cDNA per slide.
Microarrays were UV-crosslinked using a […] UV-crosslinker (Stratagene), and then washed at room temperature once in 0.2% SDS and three times in distilled water. Non-specific binding sites were blocked by incubation of microarrays in 0.2% casein in phosphate buffered saline (Tropix, Bedford Mich.) for 30 minutes at 60° C. followed by washes in 0.2% SDS and distilled water as before.
In all cases, mRNA from untreated early confluent C3A cells were prepared in parallel as described below.
Cells were harvested and lysed in 1 ml of TRIZOL reagent (5×10^6 cells/ml; Life Technologies). Lysates were vortexed thoroughly, incubated at room temperature for 2-3 minutes, and extracted with 0.5 ml chloroform. The extract was mixed, incubated at room temperature for 5 minutes, and centrifuged at 15,000 rpm for 15 minutes at 4° C. The aqueous layer was collected, and an equal volume of isopropanol was added. Samples were mixed, incubated at room temperature for 10 minutes, and centrifuged at 15,000 rpm for 20 minutes at 4° C. The supernatant was removed, and the RNA pellet was washed with 1 ml of 70% ethanol, centrifuged at 15,000 rpm at 4° C., and resuspended in RNAse-free water. The concentration of the RNA was determined by measuring the optical density at 260 nm.
Poly(A) RNA was prepared using an OLIGOTEX mRNA kit (Qiagen) with the following modifications: OLIGOTEX beads were washed in tubes instead of on spin columns, resuspended in elution buffer, and then loaded onto spin columns to recover mRNA. To obtain maximum yield, the mRNA was eluted twice.
Each poly(A) RNA sample was reverse transcribed using MMLV reverse-transcriptase, 0.05 pg/μl oligo-d(T) primer (21mer), 1× first strand buffer, 0.03 units/ul RNAse inhibitor, 500 uM dATP, 500 uM dGTP, 500 uM dTTP, 40 uM dCTP, and 40 uM either dCTP-Cy3 or dCTP-Cy5 (APB).

C[C@H]1C[C@H]2[C@@H]3CCC4=CC(=O)C=C[C@]4(C)[C@@]3(Cl)[C@@H](O)C[C@]2(C)[C@@]1(O)C(=O)CO [beclomethasone]
anti-inflammatory and vasoconstrictive effects relative to hydrocortisone [1]: 5000 times greater
Ave DE [log2] (C3A treated with steroid) (human C3A liver cells; Clone ID 400654): 1.06 log2
Ave DE [log2] (C3A treated with steroid) (human C3A liver cells; Clone ID 517374): 0.40 log2
Ave DE [log2] (C3A treated with steroid) (human C3A liver cells; Clone ID 615776): 1.01 log2
Ave DE [log2] (C3A treated with steroid) (human C3A liver cells; Clone ID 654246): −0.95 log2
Ave DE [log2] (C3A treated with steroid) (human C3A liver cells; Clone ID 668460): 1.23 log2
Ave DE [log2] (C3A treated with steroid) (human C3A liver cells; Clone ID 963331): −1.01 log2
Ave DE [log2] (C3A treated with steroid) (human C3A liver cells; Clone ID 1275616): 0.94 log2
Ave DE [log2] (C3A treated with steroid) (human C3A liver cells; Clone ID 1323616): 1.09 log2
Ave DE [log2] (C3A treated with steroid) (human C3A liver cells; Clone ID 1329625): 0.35 log2
Ave DE [log2] (C3A treated with steroid) (human C3A liver cells; Clone ID 1573840): 0.97 log2
Ave DE [log2] (C3A treated with steroid) (human C3A liver cells; Clone ID 1604437): 0.47 log2
Ave DE [log2] (C3A treated with steroid) (human C3A liver cells; Clone ID 1662870): −0.76 log2
Ave DE [log2] (C3A treated with steroid) (human C3A liver cells; Clone ID 1697719): −0.69 log2
Ave DE [log2] (C3A treated with steroid) (human C3A liver cells; Clone ID 1723834): 0.47 log2
Ave DE [log2] (C3A treated with steroid) (human C3A liver cells; Clone ID 1857044): 0.61 log2
Ave DE [log2] (C3A treated with steroid) (human C3A liver cells; Clone ID 1876829): −1.00 log2
Ave DE [log2] (C3A treated with steroid) (human C3A liver cells; Clone ID 1951845): 1.01 log2
Ave DE [log2] (C3A treated with steroid) (human C3A liver cells; Clone ID 1995520): 0.82 log2
Ave DE [log2] (C3A treated with steroid) (human C3A liver cells; Clone ID 2046717): 0.98 log2
Ave DE [log2] (C3A treated with steroid) (human C3A liver cells; Clone ID 2086783): −0.88 log2
Ave DE [log2] (C3A treated with steroid) (human C3A liver cells; Clone ID 2095329): −0.99 log2
Ave DE [log2] (C3A treated with steroid) (human C3A liver cells; Clone ID 2285181): −0.88 log2
Ave DE [log2] (C3A treated with steroid) (human C3A liver cells; Clone ID 2287703): −0.99 log2
Ave DE [log2] (C3A treated with steroid) (human C3A liver cells; Clone ID 2287724): −1.05 log2
Ave DE [log2] (C3A treated with steroid) (human C3A liver cells; Clone ID 2294968): −0.73 log2
Ave DE [log2] (C3A treated with steroid) (human C3A liver cells; Clone ID 2372040): −1.05 log2
Ave DE [log2] (C3A treated with steroid) (human C3A liver cells; Clone ID 2430165): 1.04 log2
Ave DE [log2] (C3A treated with steroid) (human C3A liver cells; Clone ID 2506425): 0.88 log2
Ave DE [log2] (C3A treated with steroid) (human C3A liver cells; Clone ID 2636759): 0.81 log2
Ave DE [log2] (C3A treated with steroid) (human C3A liver cells; Clone ID 2695371): 0.51 log2
Ave DE [log2] (C3A treated with steroid) (human C3A liver cells; Clone ID 2947188): −1.02 log2
Ave DE [log2] (C3A treated with steroid) (human C3A liver cells; Clone ID 3047143): 1.10 log2
Ave DE [log2] (C3A treated with steroid) (human C3A liver cells; Clone ID 3057272): 0.83 log2
Ave DE [log2] (C3A treated with steroid) (human C3A liver cells; Clone ID 3528232): 0.38 log2
Ave DE [log2] (C3A treated with steroid) (human C3A liver cells; Clone ID 3687607): 1.03 log2
Ave DE [log2] (C3A treated with steroid) (human C3A liver cells; Clone ID 3960194): 1.00 log2
Ave DE [log2] (C3A treated with steroid) (human C3A liver cells; Clone ID 3973687): 1.23 log2
Ave DE [log2] (C3A treated with steroid) (human C3A liver cells; Clone ID 3973887): −0.91 log2
Ave DE [log2] (C3A treated with steroid) (human C3A liver cells; Clone ID 4087621): 0.89 log2
Ave DE [log2] (C3A treated with steroid) (human C3A liver cells; Clone ID 4215034): 1.13 log2
Ave DE [log2] (C3A treated with steroid) (human C3A liver cells; Clone ID 4253663): −0.70 log2
Ave DE [log2] (C3A treated with steroid) (human C3A liver cells; Clone ID 4284270): −0.70 log2
Ave DE [log2] (C3A treated with steroid) (human C3A liver cells; Clone ID 4855265): 1.00 log2
Ave DE [log2] (C3A treated with steroid) (human C3A liver cells; Clone ID 4863677): 1.09 log2
Ave DE [log2] (C3A treated with steroid) (human C3A liver cells; Clone ID 4894508): −0.93 log2
Ave DE [log2] (C3A treated with steroid) (human C3A liver cells; Clone ID 5091002): −1.13 log2
